Laboratory results as given in patent US20250215087A1, “COMBINATION THERAPY OF KRAS INHIBITOR AND TREG DEPLETING AGENT” (Bristol-Myers Squibb Company, priority 2023, published 2025).

How the values were obtained:
[1] = system: Lewis Lung (3LL) carcinoma model; assay: Imaging mass cytometry of Lewis Lung (3LL) carcinoma lungs after 7 days MRTX1257 or Vehicle; spatial community analysis; type: in vivo, C57BL/6 mice
Experimental: Two datasets of IMC data generated from an in vivo experiment in which the Lewis Lung (3LL) carcinoma model was treated with the KRAS-G12C inhibitor MRTX1257 for 7 days prior to harvesting of the lungs were published previously in van Maldegem et al. (2021), Nat. Commun. 12:5906 (dataset 1) and Mugarza et al. (2022), Sci. Adv. 8: eabm8780 (dataset 2).
Following 3 weeks, mice were treated with either 50 mg/kg MRTX1257 or Vehicle for 7 consecutive days. Mice were sacrificed on day 8 and lungs were harvested and frozen. Tumors of 3 mice from each treatment group for dataset 1 and 4 mice from each treatment group for dataset 2 were processed for imaging mass cytometry. Tissue slices were stained with a cocktail of antibodies conjugated to heavy metal isotopes and images were obtained using a Hyperion Imaging Mass Cytometer (Standard BioTools). Different antibody panels were used for the generation of datasets 1 and 2 (FIGS. 1A and 1B). In total, 6 images were acquired from both Vehicle and MRTX1257 groups for dataset 1, and the Vehicle group for dataset 2, and 5 images were acquired from the MRTX1257 group for dataset 2.
For further details on the in vivo study and IMC, including tissue processing, antibody staining, imaging acquisition and cell typing, reference is generally made to the Materials and Methods and Supplementary Materials provided by van Maldegem et al. (2021) and Mugarza et al. (2022), which are herewith incorporated by reference.
As described in van Maldegem et al. (2021), cellular neighbors were identified during segmentation using the CellProfiler module ‘Measure Object Neighbours’, following steps to identify individual cells. Neighbors were identified if a cell's boundary was within 15 μm (pixels) of the cell boundary of interest. Neighbor information was obtained for every cell object in each tissue.
Each ‘neighborhood’ was identified as a single cell and its local neighbors; defined by 15 μm object relationship output data from segmentation.
Expression values for each marker were normalized to the mean intensity of Xenon134. Following this, the data for each image across both treatment groups was concatenated, creating a size of 282,837 cells for dataset 1 and 626,070 cells for dataset 2. Each channel was then scaled to the 99th percentile. […] These clusters formed the basis to identify cell types present in the tissue, including tumor, lymphocytes, myeloid cells, fibroblasts, and endothelium. More details are available in van Maldegem et al., 2021 for dataset 1 and Mugarza et al., 2022 for dataset 2.
As described in van Maldegem et al., 2021, the neighbourhood method developed by Bodenmiller (https://github.com/BodenmillerGroup/neighbourhood; Schapiro et al., 2017, histoCAT: analysis of cell phenotypes and interactions in multiplex image cytometry data. Nat Methods 14, 873-876) was used to identify the enrichment of cell types within the 15-pixel neighborhood of each cell compared to random permutations of events, with a modification of only calculating enrichment in the CD8^+ T cell neighborhood, separated by community and using 1000 rounds of permutation. This was carried out for the community names T cell/normal adjacent community (T/NA), T cell/Type 1 macrophage community (T/M1), T cell/Dendritic cell community (T/DC), T cell/Type 2 macrophage community 1 (T/M2_1) and T cell/Type 2 macrophage community 2 (T/M2_2) communities for the MRTX1257 treatment setting.
Neighborhood enrichment analysis was also used for exploring cell pair relationships in the presence or absence of Tregs within the T/DC and T/M2_2 communities following MRTX treatment. Enrichment scores were only deemed statistically significant if the p-value when comparing real neighbors to randomized neighbors was ≤0.01.

[2] = system: Lewis Lung (3LL) carcinoma model; settings: van Maldegem et al. 2021, cited from earlier work
[3] = system: orthotopic Lewis lung (3LL) NSCLC tumors; settings: seven consecutive days of treatment; van Maldegem et al. 2021; cited from earlier work
KRAS-G12C mutant NSCLC = settings: clinical trials; cited from earlier work
advanced melanoma = settings: Hodi et al. 2010; cited from earlier work
CCR4 = molecular target: T1, CCR4 (Homo sapiens, UniProt P51679); settings: Kurose et al. 2015; cited from earlier work
T1 construct: host or cells: Tregs, conventional CD4+ and CD8+ T cells (in vivo, cited study)
T1 sequence (P51679 1-360): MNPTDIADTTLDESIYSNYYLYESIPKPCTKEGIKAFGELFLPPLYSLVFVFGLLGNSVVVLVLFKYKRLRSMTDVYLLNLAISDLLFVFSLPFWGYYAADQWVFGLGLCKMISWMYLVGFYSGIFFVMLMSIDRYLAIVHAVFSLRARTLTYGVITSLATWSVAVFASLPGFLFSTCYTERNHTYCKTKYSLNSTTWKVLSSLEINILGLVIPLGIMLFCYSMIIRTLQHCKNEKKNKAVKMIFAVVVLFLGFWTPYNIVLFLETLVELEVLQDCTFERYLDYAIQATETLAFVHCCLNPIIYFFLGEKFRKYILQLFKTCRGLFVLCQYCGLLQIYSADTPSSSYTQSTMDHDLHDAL

C=CC(=O)N1CCN(c2nc(OC[C@@H]3CCCN3C)nc3c2CCN(c2cccc4cccc(C)c24)C3)C[C@@H]1CC#N [MRTX1257]
frequency of c-casp3+ tumor cells in the CD8+ T cell close neighborhood ([1]; T/DC community, 'No Tregs' neighborhoods, FIG. 25): increased
Ki67 expression on CD4+ and CD8+ T cells ([1]; T/DC community, dataset 2, FIG. 19A): significant increase
occurrences of a c-casp3+ tumor cell in the 15-pixel neighborhood of a CD8+ T cell ([1]; T/DC community, dataset 2, FIG. 19B): increased
images with CD4+ T cells and dendritic cells significantly enriched in the neighborhood of a CD8+ T cell ([1]; T/DC community, vs random permutation, FIG. 21A): at least five out of the six images
images with Treg cells significantly enriched in the neighborhood of CD8+ T cells ([1]; T/DC community, FIG. 21A): 3 out of the 6
mean expression of PD-1 on CD8+ T cells ([1]; T/DC, T/M2_1 and T/M2_2 communities, most pronounced in T/DC, FIGS. 16A-16B): an increase occurred
PD-L1 expression on dendritic cells (accompanied by high CD86) ([1]; T/DC, T/M2_1 and T/M2_2 communities, FIGS. 13A-13C): increased PD-L1 expression
interactions between tumor cells and neutrophils (communities 5, 13, 14, 15) ([1]; dataset 1, MRTX1257 vs Vehicle, FIG. 5): lost or dispersed
mean expression of CXCL9 on dendritic cells and macrophages ([1]; dataset 2, highest in T/DC community, FIG. 14): increased
mean expression of PD-1 on regulatory T cells ([1]; mainly in the T/DC community, FIG. 16D): higher PD-1 expression
count of regulatory T cells ([1]; most notably in T/DC and T/M2_2 communities, FIG. 22): increased in size
spatial distribution and neighborhood environment of CD8+ T cells ([1]; top 5 CD8+ T cell rich communities, MRTX1257 vs Vehicle, FIG. 11): shift in spatial distribution and neighborhood environment
percentage of PD-1+ CD8+ T cells that are positive for LAG-3 ([1]; tumor-associated communities following MRTX treatment, FIG. 17B): ~30%
immune phenotype of the tumor microenvironment ([2]; 50 mg/kg MRTX1257 for 7 days vs Vehicle): remodelled into a more inflammatory immune infiltrated TME
type 2 macrophage number and activation markers ([2]; previously described): increased in cell number and upregulated activation markers such as PD-L1 and MHC-II
tumor regression and growth [3]: tumors did not regress although tumor growth was inhibited

C=CC(=O)N1CCN(c2nc(=O)n(-c3c(C)ccnc3C(C)C)c3nc(-c4c(O)cccc4F)c(F)cc23)[C@@H](C)C1 [sotorasib]
patients achieving temporary disease control (KRAS-G12C mutant NSCLC): 80%

Ipilimumab: human anti-CTLA-4 antibody with IgG1 constant region, SEQ ID NO: 150 and 151
overall survival (advanced melanoma): improvement in overall survival

mogamulizumab: humanized, afucosylated monoclonal antibody targeting CC chemokine receptor 4 (CCR4)
CD8+ T cell numbers (CCR4): modest reductions
Treg depletion (CCR4): achieved
conventional CD4+ T cells (CCR4): significant depletion
